Assay results: PubChem BioAssay AID1963866 (Molecular Pharmacology Branch, DTP, NCI, 2024)

Tested on: PDC KRAS tumor spheroids with HUVEC/MSC, viability
Experiment: Anticancer human tumor 349418-098-R-PDC patient-derived lung adenocarcinoma cell line growth inhibition [KRAS2]
Conditions: for IC50: curve of first compound; for viability, T/C: stronger effect = lower value
Procedure, shortened: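 KRAS-mutant tumor cells were grown as spheroids with HUVEC endothelial cells and human MSCs as stroma. Targeted agents were tested alone and with KRAS pathway inhibitors. Doses started at or near clinical Cmax, or 10 microM, descending half-log.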

[1] = second compound 0.1 µM, first compound 0.000316 µM
[2] = second compound 0.1 µM, first compound 0.001 µM
[3] = second compound 0.1 µM, first compound 0.00316 µM
[4] = second compound 0.1 µM, first compound 0.01 µM
[5] = second compound 0.1 µM, first compound 0.0316 µM
[6] = second compound 0.316 µM, first compound 0.000316 µM
[7] = second compound 0.316 µM, first compound 0.001 µM
[8] = second compound 0.316 µM, first compound 0.00316 µM
[9] = second compound 0.316 µM, first compound 0.01 µM
[10] = second compound 0.316 µM, first compound 0.0316 µM
[11] = second compound 1 µM, first compound 0.000316 µM
[12] = second compound 1 µM, first compound 0.001 µM
[13] = second compound 1 µM, first compound 0.00316 µM
[14] = second compound 1 µM, first compound 0.01 µM
[15] = second compound 1 µM, first compound 0.0316 µM
[16] = second compound 3.16 µM, first compound 0.000316 µM
[17] = second compound 3.16 µM, first compound 0.001 µM
[18] = second compound 3.16 µM, first compound 0.00316 µM
[19] = second compound 3.16 µM, first compound 0.01 µM
[20] = second compound 3.16 µM, first compound 0.0316 µM
[21] = second compound 10 µM, first compound 0.000316 µM
[22] = second compound 10 µM, first compound 0.001 µM
[23] = second compound 10 µM, first compound 0.00316 µM
[24] = second compound 10 µM, first compound 0.01 µM
[25] = second compound 10 µM, first compound 0.0316 µM
[26] = second compound 0.1 µM, first compound 0.1 µM
[27] = second compound 0.316 µM, first compound 0.1 µM
[28] = second compound 1 µM, first compound 0.1 µM
[29] = second compound 3.16 µM, first compound 0.1 µM
[30] = second compound 10 µM, first compound 0.1 µM
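Note: spheroids exposed to compounds for seven days before readout.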

Row | Compound | IC50 (second compound 0.1 µM) | IC50 (second compound 0.316 µM) | IC50 (second compound 1 µM) | IC50 (second compound 3.16 µM) | IC50 (second compound 10 µM) | viability, T/C [1] | viability, T/C [2] | viability, T/C [3] | viability, T/C [4] | viability, T/C [5] | viability, T/C [6] | viability, T/C [7] | viability, T/C [9] | viability, T/C [10] | viability, T/C [14] | viability, T/C [15] | viability, T/C [19] | viability, T/C [20] | viability, T/C [24] | viability, T/C [25] | also measured
1 | CC(=O)Nc1cccc(-n2c(=O)n(C3CC3)c(=O)c3c(Nc4ccc(I)cc4F)n(C)c(=O)c(C)c32)c1 + CNCc1ccccc1-c1csc(C(C)Nc2nc(C)nc3cc(OC)c(OC)cc23)c1 | < 0.1 nM | < 0.1 nM | < 0.1 nM | < 0.1 nM | < 0.1 nM | 12.7% | 10.5% | 9.99% | 8.08% | 5.08% | 12.2% | 9.67% | 7.29% | 5.28% | 5.69% | 4.51% | 0.1% | 0.08% | 0.08% | 0.13% | viability, T/C (second compound 0.1 µM, first compound 0.0001 µM): 21.2%; viability, T/C (second compound 0.316 µM, first compound 0.0001 µM): 20.8%; viability, T/C [8]: 7.39%; viability, T/C (second compound 1 µM, first compound 0.0001 µM): 17%; viability, T/C [11]: 8.66%; viability, T/C [12]: 7.27%; viability, T/C [13]: 5.84%; viability, T/C (second compound 3.16 µM, first compound 0.0001 µM): 0.05%; viability, T/C [16]: 0.03%; viability, T/C [17]: 0.02%; viability, T/C [18]: 0.02%; viability, T/C (second compound 10 µM, first compound 0.0001 µM): 0.13%; viability, T/C [21]: 0.08%; viability, T/C [22]: 0.07%; viability, T/C [23]: 0.07%
2 | CC(=O)OC12COC1CC(O)C1(C)C(=O)C(O)C3=C(C)C(OC(=O)C(O)C(NC(=O)OC(C)(C)C)c4ccccc4)CC(O)(C(OC(=O)c4ccccc4)C21)C3(C)C (stereo not given) + CNCc1ccccc1-c1csc(C(C)Nc2nc(C)nc3cc(OC)c(OC)cc23)c1 | < 10 nM | < 10 nM | < 10 nM | < 10 nM | < 10 nM | – | – | – | 13.4% | 14.8% | – | – | 10.7% | 13.9% | 11% | 15.3% | 8.03% | 0.13% | 0.19% | 0.12% | viability, T/C [26]: 18.9%; viability, T/C (second compound 0.1 µM, first compound 0.316 µM): 17.3%; viability, T/C (second compound 0.1 µM, first compound 1 µM): 22%; viability, T/C (second compound 0.1 µM, first compound 3.16 µM): 24.9%; viability, T/C [27]: 15.6%; viability, T/C (second compound 0.316 µM, first compound 0.316 µM): 17.8%; viability, T/C (second compound 0.316 µM, first compound 1 µM): 21%; viability, T/C (second compound 0.316 µM, first compound 3.16 µM): 21.6%; viability, T/C [28]: 15%; viability, T/C (second compound 1 µM, first compound 0.316 µM): 21.2%; viability, T/C (second compound 1 µM, first compound 1 µM): 23.8%; viability, T/C (second compound 1 µM, first compound 3.16 µM): 24.2%; viability, T/C [29]: 0.09%; viability, T/C (second compound 3.16 µM, first compound 0.316 µM): 0.15%; viability, T/C (second compound 3.16 µM, first compound 1 µM): 0.1%; viability, T/C (second compound 3.16 µM, first compound 3.16 µM): 23.6%; viability, T/C [30]: 0.12%; viability, T/C (second compound 10 µM, first compound 0.316 µM): 0.17%; viability, T/C (second compound 10 µM, first compound 1 µM): 22.6%; viability, T/C (second compound 10 µM, first compound 3.16 µM): 0.21%
3 | CN(C)C/C=C/C(=O)Nc1cc2c(Nc3ccc(F)c(Cl)c3)ncnc2cc1O[C@H]1CCOC1 + CNCc1ccccc1-c1csc(C(C)Nc2nc(C)nc3cc(OC)c(OC)cc23)c1 | > 100 nM | > 100 nM | > 100 nM | < 0.316 nM | < 0.316 nM | 105% | 108% | 102% | 97% | 108% | 98.2% | 103% | 99.9% | 97.8% | 94.2% | 84.9% | 0.41% | 0.63% | 0.08% | 0.08% | viability, T/C [26]: 91.5%; viability, T/C [8]: 103%; viability, T/C [27]: 91.2%; viability, T/C [11]: 107%; viability, T/C [12]: 104%; viability, T/C [13]: 87.7%; viability, T/C [28]: 95.4%; viability, T/C [16]: 0.27%; viability, T/C [17]: 0.17%; viability, T/C [18]: 0.19%; viability, T/C [29]: 0.26%; viability, T/C [21]: 0.08%; viability, T/C [22]: 0.07%; viability, T/C [23]: 0.07%; viability, T/C [30]: 0.13%
